From patent publication US8987314B2, “Amide, urea or sulfone amide linked benzothiazole inhibitors of endothelial lipase” (Bristol-Myers Squibb Company, priority 2012, dated 2015)

What was measured:
hepatic lipase (HL) = hepatic lipase (HL) (Homo sapiens (Human), UniProt P11150); assay: HL assay: hepatic lipase activity with fluorescent substrate A10070 in DMPG vesicles; format: biochemical
Summary of the method: (§1)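 Substrate A10070 sits in sonicated DMPG vesicles at 0.11 mole fraction. Lipase and compound preincubated 30 min, 37° C, in HEPES pH 8.0 buffer with CaCl2.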

Endothelial lipase (EL) = Endothelial lipase (EL) (Homo sapiens (Human), UniProt Q9Y5X9); assay: EL assay: endothelial lipase activity with fluorescent substrate A10070 in DMPG vesicles; format: biochemical
Endothelial lipase (EL), sequence (Q9Y5X9 21-500): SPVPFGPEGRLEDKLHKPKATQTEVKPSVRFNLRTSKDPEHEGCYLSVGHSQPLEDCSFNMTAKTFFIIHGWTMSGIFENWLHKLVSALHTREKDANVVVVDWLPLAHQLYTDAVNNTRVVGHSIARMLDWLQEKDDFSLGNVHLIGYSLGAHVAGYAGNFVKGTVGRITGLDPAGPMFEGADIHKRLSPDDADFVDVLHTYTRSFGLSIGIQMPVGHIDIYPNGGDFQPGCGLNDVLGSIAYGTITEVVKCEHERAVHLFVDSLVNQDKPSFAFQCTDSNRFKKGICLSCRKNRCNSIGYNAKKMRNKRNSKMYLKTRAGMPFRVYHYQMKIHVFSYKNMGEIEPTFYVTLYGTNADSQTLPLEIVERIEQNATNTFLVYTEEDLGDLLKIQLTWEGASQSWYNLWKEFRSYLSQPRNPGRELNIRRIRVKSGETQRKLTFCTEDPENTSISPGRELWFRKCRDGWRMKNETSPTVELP
Summary of the method: as §1

hepatic lipase (HL), sequence (P11150 23-499, species assumed): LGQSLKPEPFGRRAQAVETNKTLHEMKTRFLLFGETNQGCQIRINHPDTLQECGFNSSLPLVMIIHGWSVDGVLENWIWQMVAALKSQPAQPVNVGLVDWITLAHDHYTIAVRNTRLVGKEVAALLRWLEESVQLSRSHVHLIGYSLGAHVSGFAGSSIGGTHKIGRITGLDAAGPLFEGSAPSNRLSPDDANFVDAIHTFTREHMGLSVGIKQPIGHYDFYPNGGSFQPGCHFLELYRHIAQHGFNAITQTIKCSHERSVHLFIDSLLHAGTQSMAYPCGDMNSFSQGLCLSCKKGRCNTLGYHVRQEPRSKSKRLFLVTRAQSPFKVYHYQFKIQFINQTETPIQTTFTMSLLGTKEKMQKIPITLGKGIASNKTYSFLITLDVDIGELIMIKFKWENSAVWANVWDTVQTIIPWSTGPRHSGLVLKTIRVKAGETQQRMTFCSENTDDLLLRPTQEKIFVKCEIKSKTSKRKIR

Row | SMILES | IC50 (hepatic lipase (HL)) | IC50 (Endothelial lipase (EL))
1 | C[C@H]1CN(C(=O)c2ccc(-c3ccc4nc(C(C(=O)NCCS(N)(=O)=O)S(=O)(=O)CC5CC5)sc4c3)cc2)CCO1 (stereo partly drawn) [Example B251, 2-cyclopropylmethane-sulfonyl-2-(6-{4-[(2S)-2-methylmorpholine-4-carbonyl]phenyl}-1,3-benzothiazol-2-yl)-N-(2-sulfamoylethyl)acetamide] | 363 nM | 2.6 nM
2 | Cc1nnc(CNC(=O)C(c2nc3ccc(-c4ccc(O)cc4)cc3s2)S(=O)(=O)Cc2ccccc2)o1 (centres unmarked) [Example B254, 2-[6-(4-hydroxyphenyl)-1,3-benzothiazol-2-yl]-N-[(5-methyl-1,3,4-oxadiazol-2-yl)methyl]-2-phenylmethanesulfonyl-acetamide] | 259 nM | 294 nM
3 | Cc1nnc(CNC(=O)C(c2nc3ccc(-c4cccc(N(C)C)c4)cc3s2)S(=O)(=O)Cc2ccccc2)o1 (centres unmarked) [Example B255, 2-{6-[3-(dimethylamino)phen-yl]-1,3-benzothiazol-2-yl}-N-[(5-methyl-1,3,4-oxadiazol-2-yl)methyl]-2-phenylmethanesulfonyl-acetamide] | 43.5 nM | 225 nM
4 | CS(=O)(=O)C(C(=O)NCc1cccc(S(N)(=O)=O)c1)c1nc2ccc(-c3ccccc3)cc2s1 (centres unmarked) [Example B256, 2-methanesulfonyl-2-(6-phenyl-1,3-benzothiazol-2-yl)-N-[(3-sulfamoylphen-yl)methyl]acetamide] | 14.7 nM | 190 nM
5 | Cc1nnc(CNC(=O)C(c2nc3ccc(-c4ccc(C(=O)N5CC(F)(F)C5)cc4)cc3s2)S(C)(=O)=O)o1 (centres unmarked) [Example B257, 2-{6-[4-(3,3-difluoroazetidine-1-carbonyl)phen-yl]-1,3-benzothiazol-2-yl}-2-methanesulfonyl-N-[(5-methyl-1,3,4-oxadiazol-2-yl)methyl]a-cetamide] | 53.3 nM | 32 nM
6 | COCCNC(=O)c1ccc(-c2cc3sc(C(C(=O)NCc4nnc(C)o4)S(=O)(=O)CCOC)nc3cc2F)cc1 (centres unmarked) [Example B258, 4-{5-fluoro-2-[(2-methoxy-ethanesulfonyl)({[(5-methyl-1,3,4-oxadiazol-2-yl)methyl]carbamoyl})meth-yl]-1,3-benzothiazol-6-yl}-N-(2-methoxyeth-yl)benzamide] | 889 nM | 57.2 nM
7 | COCCS(=O)(=O)C(C(=O)NCc1nnc(C)o1)c1nc2cc(F)c(-c3ccc(C(=O)N4CC(C)(O)C4)cc3)cc2s1 (centres unmarked) [Example B260, 2-{5-fluoro-6-[4-(3-hydroxy-3-methyl-azetidine-1-carbonyl)phen-yl]-1,3-benzothiazol-2-yl}-2-(2-methoxyethane-sulfonyl)-N-[(5-methyl-1,3,4-oxadiazol-2-yl)methyl]acetamide] | 1340 nM | 67 nM
8 | COCCS(=O)(=O)C(C(=O)NCc1nnc(C)o1)c1nc2cc(F)c(-c3ccc(C(=O)N4CCCC4)c(F)c3)cc2s1 (centres unmarked) [Example B261, 2-{5-fluoro-6-[3-fluoro-4-(pyrrolidine-1-carbonyl)phen-yl]-1,3-benzothiazol-2-yl}-2-(2-methoxy-ethanesulfonyl)-N-[(5-methyl-1,3,4-oxadiazol-2-yl)methyl]acetamide] | 765 nM | 101 nM
9 | COCCS(=O)(=O)C(C(=O)NCc1nnc(C)o1)c1nc2cc(F)c(-c3ccc(C(=O)N4CCCC4)cc3)cc2s1 (centres unmarked) [Example B262, 2-{5-fluoro-6-[4-(pyrrolidine-1-carbonyl)phen-yl]-1,3-benzothiazol-2-yl}-2-(2-methoxy-ethanesulfonyl)-N-[(5-methyl-1,3,4-oxadiazol-2-yl)methyl]acetamide] | 374 nM | 102 nM
10 | Cc1nnc(CNC(=O)C(c2nc3ccc(-c4ccc(C(=O)N5CC(C)(O)C5)cc4)cc3s2)S(C)(=O)=O)o1 (centres unmarked) [Example B263, 2-{6-[4-(3-hydroxy-3-methylazetidine-1-carbonyl)phenyl]-1,3-benzothiazol-2-yl}-2-methanesulfonyl-N-[(5-methyl-1,3,4-oxadiazol-2-yl)methyl]acetamide] | 10000 nM | 77 nM
11 | COCCNC(=O)c1ccc(-c2ccc3nc(C(C(=O)NCc4nnc(C)o4)S(=O)(=O)CCOC)sc3c2)cc1 (centres unmarked) [Example B264, 4-{2-[(2-methoxyethane-sulfonyl)({[(5-methyl-1,3,4-oxadiazol-2-yl)meth-yl]carbamoyl})meth-yl]-1,3-benzothiazol-6-yl}-N-(2-methoxyethyl)ben-zamide] | 184 nM | 93 nM
12 | COCCS(=O)(=O)C(C(=O)NCc1nnc(C)o1)c1nc2ccc(-c3ccc(C(=O)N4CC(C)(O)C4)cc3)cc2s1 (centres unmarked) [Example B265, 2-{6-[4-(3-hydroxy-3-methylazetidine-1-carbonyl)phenyl]-1,3-benzothiazol-2-yl}-2-(2-methoxyethanesulfonyl)-N-[(5-methyl-1,3,4-oxadiazol-2-yl)methyl]a-cetamide] | 634 nM | 59 nM
13 | CC(C)S(=O)(=O)C(C(=O)NCCS(N)(=O)=O)c1nc2cc(C(F)(F)F)c(-c3ccc(C(=O)N4CCOCC4)cc3)cc2s1 (centres unmarked) [Example B268, 2-{6-[4-(morpholine-4-carbonyl)phenyl]-5-(trifluoromethyl)-1,3-benzothiazol-2-yl}-2-(propane-2-sulfonyl)-N-(2-sulfamoylethyl)acetamide] | 406 nM | 9.2 nM

The remaining lines, values ahead:

Row | IC50 (hepatic lipase (HL)) | IC50 (Endothelial lipase (EL)) | SMILES
14 | 2.4 nM | 4.8 nM | NS(=O)(=O)CCNC(=O)C(c1nc2ccc(-c3cccc(Cl)c3)cc2s1)S(=O)(=O)Cc1ccc(F)cc1 (centres unmarked) [Example B243, 2-[6-(3-chlorophenyl)-1,3-benzothiazol-2-yl]-2-[(4-fluorophenyl)methanesulfon-yl]-N-(2-sulfamoylethyl)a-cetamide]
15 | 12 nM | 0.9 nM | COC(C)(C)CNC(=O)c1ccc(-c2ccc3nc(C(C(=O)NCCS(N)(=O)=O)S(=O)(=O)CC4CC4)sc3c2)cc1 (centres unmarked) [Example B244, 4-(2-{cyclopropylmethane-sulfonyl[(2-sulfamoyl-ethyl)carbamoyl]methyl}-1,3-benzothiazol-6-yl)-N-(2-methoxy-2-methyl-propyl)benzamide]
16 | 130 nM | 2.1 nM | NS(=O)(=O)CCNC(=O)C(c1nc2ccc(-c3ccc(CO)cc3)cc2s1)S(=O)(=O)Cc1ccc(F)cc1 (centres unmarked) [Example B245, 2-[(4-fluorophenyl)meth-anesulfonyl]-2-{6-[4-(hydroxymethyl)phenyl]-1,3-benzothiazol-2-yl}-N-(2-sulfamoylethyl)a-cetamide]
17 | 94.4 nM | 2.8 nM | COCCN(C)C(=O)c1ccc(-c2ccc3nc(C(C(=O)NCCS(N)(=O)=O)S(C)(=O)=O)sc3c2)cc1F (centres unmarked) [Example B246, 2-fluoro-4-(2-{methanesul-fonyl[(2-sulfamoylethyl)car-bamoyl]methyl}-1,3-benzothiazol-6-yl)-N-(2-methoxyethyl)-N-methyl-benzamide]
18 | 127 nM | 6.1 nM | COCCN(C)C(=O)c1ccc(-c2ccc3nc(C(C(=O)NCCS(N)(=O)=O)S(=O)(=O)CC4CC4)sc3c2)cc1F (centres unmarked) [Example B247, 4-(2-{cyclopropylmethane-sulfonyl[(2-sulfamoyl-ethyl)carbamoyl]methyl}-1,3-benzothiazol-6-yl)-2-fluoro-N-(2-methoxy-ethyl)-N-methylbenzamide]
19 | 17.6 nM | 7.5 nM | COCC(C)(C)NC(=O)c1ccc(-c2ccc3nc(C(C(=O)NCCS(N)(=O)=O)S(=O)(=O)CC4CC4)sc3c2)cc1 (centres unmarked) [Example B248, 4-(2-{cyclopropylmethane-sulfonyl[(2-sulfamoyl-ethyl)carbamoyl]methyl}-1,3-benzothiazol-6-yl)-N-(1-methoxy-2-methyl-propan-2-yl)benzamide]
20 | 29.4 nM | 8.3 nM | COCC(C)(C)NC(=O)c1ccc(-c2ccc3nc(C(C(=O)NCCS(N)(=O)=O)S(=O)(=O)Cc4ccc(OC(F)(F)F)cc4)sc3c2)cc1 (centres unmarked) [Example B249, N-(1-methoxy-2-methyl-propan-2-yl)-4-(2-{[(2-sulfamoylethyl)carbamoyl][4-(trifluoromethoxy)phen-yl]methanesulfonyl-methyl}-1,3-benzothiazol-6-yl)benzamide]
21 | 38.4 nM | 5.3 nM | COC[C@H](C)NC(=O)c1ccc(-c2ccc3nc(C(C(=O)NCCS(N)(=O)=O)S(=O)(=O)Cc4ccc(OC(F)(F)F)cc4)sc3c2)cc1 (stereo partly drawn) [Example B250, N-[(2S)-1-methoxypropan-2-yl]-4-(2-{[(2-sulfamoyl-ethyl)carbamoyl][4-(trifluoromethoxy)phen-yl]methanesulfonylmethyl}-1,3-benzothiazol-6-yl)ben-zamide]
22 | 208 nM | 121 nM | COCCS(=O)(=O)C(C(=O)NCc1nnc(C)o1)c1nc2cc(F)c(-c3ccc(C(=O)N(C)C)c(F)c3)cc2s1 (centres unmarked) [Example B259, 2-fluoro-4-{5-fluoro-2-[(2-methoxyethanesulfon-yl)({[(5-methyl-1,3,4-oxadiazol-2-yl)methyl]car-bamoyl})methyl]-1,3-benzothiazol-6-yl}-N,N-dimethylbenzamide]
23 | 948 nM | 39.1 nM | COCCNC(=O)c1ccc(-c2cc3sc(C(C(=O)NCc4nnc(C)o4)S(C)(=O)=O)nc3cc2F)cc1 (centres unmarked) [Example B266, 4-{5-fluoro-2-[methanesulfonyl({[(5-methyl-1,3,4-oxadiazol-2-yl)methyl]carbamoyl})meth-yl]-1,3-benzothiazol-6-yl}-N-(2-methoxyethyl)ben-zamide]
24 | 289 nM | 44.5 nM | COCCNC(=O)c1ccc(-c2ccc3nc(C(C(=O)NCCS(N)(=O)=O)S(=O)(=O)C(C)C)sc3c2)cc1 (centres unmarked) [Example B267, N-(2-methoxyethyl)-4-{2-[(propane-2-sulfonyl)[(2-sul-famoylethyl)carbamoyl]meth-yl]-1,3-benzothiazol-6-yl}benzamide]
25 | 312 nM | 10 nM | COCCNC(=O)c1ccc(-c2cc3sc(C(C(=O)NCCS(N)(=O)=O)S(=O)(=O)C(C)C)nc3cc2C(F)(F)F)cc1 (centres unmarked) [Example B269, N-(2-methoxyethyl)-4-{2-[(propane-2-sulfonyl)[(2-sul-famoylethyl)carbamoyl]meth-yl]-5-(trifluoro-methyl)-1,3-benzothiazol-6-yl}benzamide]
